ChEMBL document CHEMBL4507324 (2021)

Experiments:
Conditions in all cases: Compound concentration 100.0 nM
[1] = test system: Tyrosine-protein kinase ABL1 (Homo sapiens), P00519 [T315I]
[2] = test system: Tyrosine-protein kinase ABL1 (Homo sapiens), P00519 [Y253F]
[3] = biological target: Tyrosine-protein kinase Blk (Homo sapiens) (UniProt P51451)
[4] = biological target: Protein-tyrosine kinase 6 (Homo sapiens) (UniProt Q13882)
[5] = biological target: Cyclin-dependent kinase 11B (Homo sapiens) (UniProt P21127)
[6] = biological target: Cyclin-dependent kinase 2 (Homo sapiens) (UniProt P24941)
[7] = biological target: Cyclin-dependent kinase-like 1 (Homo sapiens) (UniProt Q00532)
[8] = biological target: Casein kinase I isoform epsilon (Homo sapiens) (UniProt P49674)
[9] = biological target: Death-associated protein kinase 1 (Homo sapiens) (UniProt P53355)
[10] = biological target: Death-associated protein kinase 3 (Homo sapiens) (UniProt O43293)
[11] = biological target: Myotonin-protein kinase (Homo sapiens) (UniProt Q09013)
[12] = biological target: Serine/threonine-protein kinase 17A (Homo sapiens) (UniProt Q9UEE5)
[13] = biological target: Dual specificity tyrosine-phosphorylation-regulated kinase 2 (Homo sapiens) (UniProt Q92630)
[14] = biological target: Ephrin type-A receptor 5 (Homo sapiens) (UniProt P54756)
[15] = biological target: Tyrosine-protein kinase Fes/Fps (Homo sapiens) (UniProt P07332)
[16] = biological target: Vascular endothelial growth factor receptor 1 (Homo sapiens) (UniProt P17948)
[17] = biological target: Receptor-type tyrosine-protein kinase FLT3 (Homo sapiens) (UniProt P36888)
[18] = biological target: Tyrosine-protein kinase Fyn (Homo sapiens) (UniProt P06241)
[19] = biological target: Hormonally up-regulated neu tumor-associated kinase (Homo sapiens) (UniProt P57058)
[20] = biological target: Insulin receptor (Homo sapiens) (UniProt P06213)
[21] = biological target: Mitogen-activated protein kinase 10 (Homo sapiens) (UniProt P53779)
[22] = biological target: Mast/stem cell growth factor receptor Kit (Homo sapiens) (UniProt P10721)
[23] = test system: Mast/stem cell growth factor receptor Kit (Homo sapiens), P10721 [V559D]
[24] = test system: Mast/stem cell growth factor receptor Kit (Homo sapiens), P10721 [V559D,V654A]
[25] = biological target: Serine/threonine-protein kinase 10 (Homo sapiens) (UniProt O94804)
[26] = biological target: Tyrosine-protein kinase Lyn (Homo sapiens) (UniProt P07948)
[27] = biological target: MAP/microtubule affinity-regulating kinase 4 (Homo sapiens) (UniProt Q96L34)
[28] = biological target: Dual specificity mitogen-activated protein kinase kinase 1 (Homo sapiens) (UniProt Q02750)
[29] = biological target: Dual specificity mitogen-activated protein kinase kinase 6 (Homo sapiens) (UniProt P52564)
[30] = biological target: Macrophage-stimulating protein receptor (Homo sapiens) (UniProt Q04912)
[31] = biological target: Serine/threonine-protein kinase 3 (Homo sapiens) (UniProt Q13188)
[32] = biological target: Mitogen-activated protein kinase kinase kinase 14 (Homo sapiens) (UniProt Q99558)
[33] = biological target: 3-phosphoinositide-dependent protein kinase 1 (Homo sapiens) (UniProt O15530)
[34] = biological target: Phosphatidylinositol 5-phosphate 4-kinase type-2 beta (Homo sapiens) (UniProt P78356)
[35] = biological target: Serine/threonine-protein kinase PLK3 (Homo sapiens) (UniProt Q9H4B4)
[36] = biological target: Receptor-interacting serine/threonine-protein kinase 4 (Homo sapiens) (UniProt P57078)
[37] = biological target: Serine/threonine-protein kinase SBK1 (Homo sapiens) (UniProt Q52WX2)
[38] = biological target: Serine/threonine-protein kinase Sgk1 (Homo sapiens) (UniProt O00141)
[39] = biological target: Tyrosine-protein kinase Srms (Homo sapiens) (UniProt Q9H3Y6)
[40] = biological target: Tyrosine-protein kinase Tec (Homo sapiens) (UniProt P42680)
[41] = biological target: Activated CDC42 kinase 1 (Homo sapiens) (UniProt Q07912)
[42] = biological target: Transient receptor potential cation channel subfamily M member 6 (Homo sapiens) (UniProt Q9BX84)
[43] = biological target: Testis-specific serine/threonine-protein kinase 1 (Homo sapiens) (UniProt Q9BXA7)
[44] = biological target: Wee1-like protein kinase (Homo sapiens) (UniProt P30291)
[45] = biological target: Wee1-like protein kinase 2 (Homo sapiens) (UniProt P0C1S8)
[46] = biological target: Mitogen-activated protein kinase kinase kinase 19 (Homo sapiens) (UniProt Q56UN5)
Sequence of Mitogen-activated protein kinase kinase kinase 19 (Homo sapiens) (Q56UN5 whole entry): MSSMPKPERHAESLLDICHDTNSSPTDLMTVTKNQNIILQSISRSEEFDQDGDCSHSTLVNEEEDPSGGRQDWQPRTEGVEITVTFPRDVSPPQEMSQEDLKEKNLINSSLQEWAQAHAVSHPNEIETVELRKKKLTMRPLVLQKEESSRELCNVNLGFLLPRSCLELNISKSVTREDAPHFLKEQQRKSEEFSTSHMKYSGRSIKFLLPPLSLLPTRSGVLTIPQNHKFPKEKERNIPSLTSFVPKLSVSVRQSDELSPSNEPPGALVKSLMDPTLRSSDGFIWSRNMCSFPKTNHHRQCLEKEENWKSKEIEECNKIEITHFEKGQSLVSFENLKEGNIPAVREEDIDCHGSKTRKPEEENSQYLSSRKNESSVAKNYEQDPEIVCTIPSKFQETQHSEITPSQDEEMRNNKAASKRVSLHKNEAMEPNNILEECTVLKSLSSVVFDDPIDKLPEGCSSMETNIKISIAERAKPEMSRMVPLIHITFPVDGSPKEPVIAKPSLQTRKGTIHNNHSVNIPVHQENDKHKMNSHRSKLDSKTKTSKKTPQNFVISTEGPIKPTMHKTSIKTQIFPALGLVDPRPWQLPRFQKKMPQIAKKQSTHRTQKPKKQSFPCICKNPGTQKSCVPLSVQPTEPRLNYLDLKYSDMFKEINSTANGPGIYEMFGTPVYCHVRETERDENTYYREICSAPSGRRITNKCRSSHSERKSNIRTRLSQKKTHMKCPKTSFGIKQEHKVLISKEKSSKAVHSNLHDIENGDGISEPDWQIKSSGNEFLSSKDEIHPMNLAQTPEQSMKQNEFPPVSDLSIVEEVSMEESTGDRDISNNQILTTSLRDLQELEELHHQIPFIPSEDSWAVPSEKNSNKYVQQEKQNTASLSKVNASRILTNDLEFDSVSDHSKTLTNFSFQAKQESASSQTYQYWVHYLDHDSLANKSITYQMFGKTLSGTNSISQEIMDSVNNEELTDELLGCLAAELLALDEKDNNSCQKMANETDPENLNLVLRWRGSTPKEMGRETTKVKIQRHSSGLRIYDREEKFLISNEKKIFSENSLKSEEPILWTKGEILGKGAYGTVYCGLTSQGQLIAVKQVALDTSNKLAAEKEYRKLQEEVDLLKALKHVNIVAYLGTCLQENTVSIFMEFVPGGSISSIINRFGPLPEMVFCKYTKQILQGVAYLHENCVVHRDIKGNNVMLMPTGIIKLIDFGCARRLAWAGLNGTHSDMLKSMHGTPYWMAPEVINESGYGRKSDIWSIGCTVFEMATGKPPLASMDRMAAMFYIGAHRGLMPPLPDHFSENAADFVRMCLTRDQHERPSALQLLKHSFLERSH

Sequence of Hormonally up-regulated neu tumor-associated kinase (Homo sapiens) (P57058 whole entry): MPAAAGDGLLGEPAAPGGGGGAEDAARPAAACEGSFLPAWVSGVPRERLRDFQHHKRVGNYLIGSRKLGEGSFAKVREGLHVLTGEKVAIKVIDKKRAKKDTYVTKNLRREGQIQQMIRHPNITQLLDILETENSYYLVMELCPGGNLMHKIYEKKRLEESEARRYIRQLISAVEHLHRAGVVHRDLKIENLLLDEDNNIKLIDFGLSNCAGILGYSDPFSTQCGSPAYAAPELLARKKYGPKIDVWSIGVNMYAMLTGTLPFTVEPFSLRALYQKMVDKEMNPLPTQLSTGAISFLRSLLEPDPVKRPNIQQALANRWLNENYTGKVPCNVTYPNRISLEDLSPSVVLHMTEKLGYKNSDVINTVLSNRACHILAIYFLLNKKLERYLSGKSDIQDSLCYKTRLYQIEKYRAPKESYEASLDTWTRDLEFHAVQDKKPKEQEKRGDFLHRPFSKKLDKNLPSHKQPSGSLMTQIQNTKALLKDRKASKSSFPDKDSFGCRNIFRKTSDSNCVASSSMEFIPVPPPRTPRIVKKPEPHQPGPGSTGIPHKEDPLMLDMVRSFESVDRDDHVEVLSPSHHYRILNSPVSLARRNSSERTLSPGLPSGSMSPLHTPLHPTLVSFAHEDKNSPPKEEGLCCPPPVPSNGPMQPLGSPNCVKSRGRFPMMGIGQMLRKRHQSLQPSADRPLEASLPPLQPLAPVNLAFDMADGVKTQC
Sequence of Dual specificity tyrosine-phosphorylation-regulated kinase 2 (Homo sapiens) (Q92630 whole entry): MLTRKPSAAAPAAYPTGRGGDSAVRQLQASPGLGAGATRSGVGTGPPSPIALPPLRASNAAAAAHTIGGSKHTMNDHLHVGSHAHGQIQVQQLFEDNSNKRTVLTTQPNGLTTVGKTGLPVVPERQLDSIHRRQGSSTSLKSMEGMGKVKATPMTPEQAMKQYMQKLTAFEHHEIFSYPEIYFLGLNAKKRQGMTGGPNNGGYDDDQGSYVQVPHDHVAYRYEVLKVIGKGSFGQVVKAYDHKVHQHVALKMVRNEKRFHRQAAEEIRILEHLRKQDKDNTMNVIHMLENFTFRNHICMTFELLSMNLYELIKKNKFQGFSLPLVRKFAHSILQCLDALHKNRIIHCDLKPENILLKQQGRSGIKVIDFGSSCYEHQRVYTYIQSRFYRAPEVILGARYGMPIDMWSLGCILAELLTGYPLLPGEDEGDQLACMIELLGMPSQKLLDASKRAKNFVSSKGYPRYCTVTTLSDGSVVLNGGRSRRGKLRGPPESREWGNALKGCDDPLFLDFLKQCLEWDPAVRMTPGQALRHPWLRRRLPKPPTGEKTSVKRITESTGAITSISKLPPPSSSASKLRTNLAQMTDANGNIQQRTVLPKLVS
Sequence of Serine/threonine-protein kinase Sgk1 (Homo sapiens) (O00141 whole entry): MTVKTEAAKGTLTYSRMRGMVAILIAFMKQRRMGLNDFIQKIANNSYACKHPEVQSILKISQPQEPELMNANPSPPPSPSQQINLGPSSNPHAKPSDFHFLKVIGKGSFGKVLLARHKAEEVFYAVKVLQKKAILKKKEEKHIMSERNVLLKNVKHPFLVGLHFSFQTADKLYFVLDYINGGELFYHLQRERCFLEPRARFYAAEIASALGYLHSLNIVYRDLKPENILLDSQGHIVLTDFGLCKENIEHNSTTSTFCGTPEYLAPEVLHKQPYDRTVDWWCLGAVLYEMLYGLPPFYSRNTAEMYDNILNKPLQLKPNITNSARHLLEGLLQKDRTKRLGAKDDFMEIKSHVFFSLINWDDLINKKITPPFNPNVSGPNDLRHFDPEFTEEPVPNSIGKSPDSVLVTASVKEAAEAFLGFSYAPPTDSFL
Sequence of Wee1-like protein kinase 2 (Homo sapiens) (P0C1S8 whole entry, looked up): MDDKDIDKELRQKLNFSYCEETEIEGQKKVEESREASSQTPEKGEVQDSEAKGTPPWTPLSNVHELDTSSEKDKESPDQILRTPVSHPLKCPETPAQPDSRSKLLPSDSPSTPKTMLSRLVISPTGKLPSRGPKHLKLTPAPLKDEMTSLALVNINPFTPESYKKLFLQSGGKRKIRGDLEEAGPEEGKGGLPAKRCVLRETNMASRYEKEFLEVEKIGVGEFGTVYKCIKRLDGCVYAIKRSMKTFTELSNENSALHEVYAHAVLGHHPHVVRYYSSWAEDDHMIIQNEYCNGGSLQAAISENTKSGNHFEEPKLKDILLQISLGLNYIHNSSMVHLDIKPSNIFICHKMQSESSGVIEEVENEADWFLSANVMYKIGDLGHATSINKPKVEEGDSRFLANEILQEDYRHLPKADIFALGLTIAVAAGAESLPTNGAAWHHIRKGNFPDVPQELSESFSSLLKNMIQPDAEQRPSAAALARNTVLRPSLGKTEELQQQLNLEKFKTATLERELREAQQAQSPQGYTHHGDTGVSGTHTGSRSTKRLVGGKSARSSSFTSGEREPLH
Sequence of Receptor-interacting serine/threonine-protein kinase 4 (Homo sapiens) (P57078 whole entry): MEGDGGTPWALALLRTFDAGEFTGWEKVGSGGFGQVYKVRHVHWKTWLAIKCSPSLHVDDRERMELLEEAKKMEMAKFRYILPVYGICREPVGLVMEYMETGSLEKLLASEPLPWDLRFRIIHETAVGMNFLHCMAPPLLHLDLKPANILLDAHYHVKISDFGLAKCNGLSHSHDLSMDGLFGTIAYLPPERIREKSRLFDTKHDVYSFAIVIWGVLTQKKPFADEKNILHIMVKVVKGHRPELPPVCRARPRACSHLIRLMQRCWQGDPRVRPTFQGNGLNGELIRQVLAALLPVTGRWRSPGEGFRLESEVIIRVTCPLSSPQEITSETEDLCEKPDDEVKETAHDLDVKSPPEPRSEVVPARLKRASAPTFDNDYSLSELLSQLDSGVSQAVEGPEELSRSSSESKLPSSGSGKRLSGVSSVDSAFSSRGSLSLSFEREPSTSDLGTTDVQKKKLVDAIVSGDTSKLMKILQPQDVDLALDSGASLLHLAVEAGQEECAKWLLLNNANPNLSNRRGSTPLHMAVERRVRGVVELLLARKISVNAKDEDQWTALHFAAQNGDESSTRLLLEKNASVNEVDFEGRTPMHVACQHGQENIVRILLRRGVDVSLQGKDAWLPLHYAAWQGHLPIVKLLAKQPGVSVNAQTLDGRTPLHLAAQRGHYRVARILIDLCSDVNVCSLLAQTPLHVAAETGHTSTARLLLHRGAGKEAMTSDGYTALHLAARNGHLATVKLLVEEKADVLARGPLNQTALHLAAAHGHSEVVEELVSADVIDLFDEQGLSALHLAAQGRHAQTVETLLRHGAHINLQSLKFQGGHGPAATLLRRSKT
Sequence of Cyclin-dependent kinase-like 1 (Homo sapiens) (Q00532 whole entry, canonical isoform): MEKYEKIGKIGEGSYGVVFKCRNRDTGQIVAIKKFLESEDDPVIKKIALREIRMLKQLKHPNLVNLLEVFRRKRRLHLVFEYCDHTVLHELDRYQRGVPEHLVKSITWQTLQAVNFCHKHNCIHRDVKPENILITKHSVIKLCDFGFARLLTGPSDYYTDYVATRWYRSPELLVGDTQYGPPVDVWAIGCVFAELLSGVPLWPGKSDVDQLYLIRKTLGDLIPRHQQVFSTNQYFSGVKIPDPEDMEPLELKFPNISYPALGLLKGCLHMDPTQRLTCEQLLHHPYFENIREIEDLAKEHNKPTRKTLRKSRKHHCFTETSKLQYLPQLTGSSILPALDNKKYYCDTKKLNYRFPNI

SMILES: CS(=O)(=O)N1CCCC(NC(=O)[C@H](CCC2CCCCC2)NC(=O)c2ccc(CNc3ncnc4c3nnn4-c3ccccc3)cc2)C1 (some centres not stated) [SR-301]
- residual activity [1]: 100%
- residual activity [2]: 84%
- residual activity [3]: 100%
- residual activity [4]: 76%
- residual activity [5]: 100%
- residual activity [6]: 100%
- residual activity [7]: 71%
- residual activity [8]: 100%
- residual activity [9]: 92%
- residual activity [10]: 88%
- residual activity [11]: 100%
- residual activity [12]: 100%
- residual activity [13]: 100%
- residual activity [14]: 96%
- residual activity [15]: 87%
- residual activity [16]: 86%
- residual activity [17]: 82%
- residual activity [18]: 56%
- residual activity [19]: 100%
- residual activity [20]: 100%
- residual activity [21]: 100%
- residual activity [22]: 89%
- residual activity [23]: 93%
- residual activity [24]: 100%
- residual activity [25]: 100%
- residual activity [26]: 96%
- residual activity [27]: 71%
- residual activity [28]: 100%
- residual activity [29]: 67%
- residual activity [30]: 97%
- residual activity [31]: 95%
- residual activity [32]: 83%
- residual activity [33]: 99%
- residual activity [34]: 100%
- residual activity [35]: 100%
- residual activity [36]: 100%
- residual activity [37]: 82%
- residual activity [38]: 100%
- residual activity [39]: 98%
- residual activity [40]: 100%
- residual activity [41]: 91%
- residual activity [42]: 96%
- residual activity [43]: 85%
- residual activity [44]: 72%
- residual activity [45]: 100%
- residual activity [46]: 92%

SMILES: CS(=O)(=O)N1CCCC(NC(=O)[C@H](CCC2CCCCC2)NC(=O)c2ccc(CNC(=O)c3cnc4ccccn34)cc2)C1 (some centres not stated) [SR-302]
- residual activity [1]: 83%
- residual activity [2]: 76%
- residual activity [3]: 100%
- residual activity [4]: 81%
- residual activity [5]: 94%
- residual activity [6]: 88%
- residual activity [7]: 91%
- residual activity [8]: 93%
- residual activity [9]: 88%
- residual activity [10]: 90%
- residual activity [11]: 98%
- residual activity [12]: 100%
- residual activity [13]: 100%
- residual activity [14]: 100%
- residual activity [15]: 100%
- residual activity [16]: 100%
- residual activity [17]: 82%
- residual activity [18]: 80%
- residual activity [19]: 100%
- residual activity [20]: 100%
- residual activity [21]: 85%
- residual activity [22]: 63%
- residual activity [23]: 49%
- residual activity [24]: 100%
- residual activity [25]: 100%
- residual activity [26]: 100%
- residual activity [27]: 100%
- residual activity [28]: 100%
- residual activity [29]: 72%
- residual activity [30]: 100%
- residual activity [31]: 88%
- residual activity [32]: 100%
- residual activity [33]: 100%
- residual activity [34]: 100%
- residual activity [35]: 96%
- residual activity [36]: 92%
- residual activity [37]: 77%
- residual activity [38]: 100%
- residual activity [39]: 71%
- residual activity [40]: 94%
- residual activity [41]: 70%
- residual activity [42]: 100%
- residual activity [43]: 94%
- residual activity [44]: 100%
- residual activity [45]: 97%
- residual activity [46]: 71%
